Data published in patent US8597692B2, “Cocoa extract and use thereof” (Barry Callebaut AG, priority 2007, dated 2013).

Assays:
[1] = system: Male Wistar-Unilever rats; assay: Forced swimming test in rat model for depression (Example 1); type: in vivo
Experimental: Male Wistar-Unilever rats (HsdCpb:WU) (Harlan, Horst, The Netherlands), weighing 200 to 225 g are weighed and randomly divided into 4 groups (n=12). Cocoa extract according to the invention comprising by weight 54-58% polyphenols, 8-9% theobromine, and 0.5-1.5% phenylethylamine is dissolved in spring water and stirred until homogenization just before its administration at the doses of 24 and 48 mg/kg BW, PO, in a volume of administration of 10 ml/kg BW.
The test product is orally administered for 14 days twice a day (2×12 and […]) in the morning and in the afternoon Imipramine (Sigma, France) was stored at room temperature and prepared fresh before testing. It is dissolved in spring water and stirred until homogenization just before its administration at a dose of 15 mg/kg BW, PO, in a volume of administration of 10 ml/kg. Imipramine is administered once a day.
(§1) An open field (40 cm high×60 cm in diameter) divided into 9 areas (8 equal squares and the central zone) is used for the measurement of locomotor and behavioral activity, to exclude the possibility that immobility is due to locomotion problems. The experimental devices for the forced swimming test are plexiglas cylinders (50 cm high×20 cm in diameter) filled to 30 cm depth with water at 25° C. In the slightly lit test room, a CCD-TV camera allows the rats to be observed and filmed on VHS-videotapes from a neighbouring room. During the experimental period, rats are weighed 3 times per week, i.e. Monday, Wednesday and Friday. Each rat is individually placed for 3 min in the center of the open field device 5 hours after the 13th treatment and 15 min before the forced swim test pretest session. This test is performed in order to test the effects of the products used on the locomotor activity of the animals and confirm that the results in the forced swim relate to the animal's mental state as opposed to locomotor ability. Immobility is defined as absence of swimming activity other than that necessary to keep the rat's head above the water. Imipramine (15 mg/kg BW, PO) is used as the antidepressant reference substance.
The test product and the vehicle are orally administered for 14 days, twice a day in the morning and in the afternoon. On D13, the products are administered just after the pretest session which lasted 15 minutes. On D14 the products are administered five hours and one hour prior to the forced swimming test. The test session lasts 5 minutes. The first five minutes of the initial 15-min swimming pretest and the 5-min swimming test session are videotaped for scoring the duration of immobility. Imipramine (15 mg/kg BW, PO) is used as the antidepressant reference substance.

[2] = system: Male Wistar-Unilever rats; assay: Open field test of locomotor and behavioral activity (Example 1); type: in vivo, rat; details: 3 min, 5 hours after the 13th treatment; CPE 24 and 48 mg/kg, Imipramine 15 mg/kg PO
Experimental: as §1

[3] = Body weight during the experimental period (Example 1); type: in vivo, rat; details: 14-day treatment; CPE 24 and 48 mg/kg, Imipramine 15 mg/kg PO; IMI difference from D5 to D14
Experimental: as §1

In the case of CN(C)CCCN1c2ccccc2CCc2ccccc21 [IMI, Imipramine], the “duration of immobility, Test (Mean ± SEM)” value ([1]; 5-min test session, D14, 15 mg/kg BW PO once a day, n = 12) was 10.33 ± 1.79, the “change of duration of immobility from pretest to test session (paired t-test)” value ([1]; CPE 24 and 48 mg/kg, Imipramine 15 mg/kg PO) was “significantly decreased” and the “duration of immobility in comparison with vehicle, pretest session (Dunnett's t test)” value ([1]; pretest session after a 13 day-period of treatment, Imipramine 15 mg/kg PO) was “significantly reduced”. For the same molecule, the “duration of immobility, Pretest (Mean ± SEM)” value ([1]; pretest session, first 5 min, D13, 15 mg/kg BW PO once a day, n = 12) was 21.25 ± 3.70, the “durations of immobility in comparison with vehicle, test session (Dunnett's t test)” value ([1]; test session D14, CPE 24 and 48 mg/kg, Imipramine 15 mg/kg PO) was “significantly reduced” and the “overt behavioral changes or motor dysfunction in the open field test” value [2] was “Neither administration of Imipramine nor CPE showed significant differences”. The “body weight compared with the other groups” value [3] was “significantly lower”.
